According to patent publication US9353075B2, “Disubstituted beta-lactones as inhibitors of N-acylethanolamine acid amidase (NAAA)” (The Regents of the University of California, priority 2011, dated 2016):

Legend:
[1] = Chemical stability in PBS buffer pH 7.4; assay type: physicochemical; settings: phosphate-buffered saline, 0.01M PBS pH 7.4, 37° C., read-out: Stability in PBS buffer, pH 7.4 t1/2
Method: Chemical stability of select compounds was evaluated under physiological pH conditions (0.01M Phosphate-Buffered Saline, pH 7.4) for up to 24 h. Stock solutions of each compound (10 mM) were prepared freshly in DMSO. Each compound was incubated at a final concentration of 10 μM (1% DMSO) in pre-heated buffer (0.01M Phosphate-Buffered Saline (PBS), pH 7.4 at 37° C.). The sample solutions were divided into aliquots in glass vials (pre-heated at 37° C.) for each time point. The samples were maintained at 37° C. in the UPLC/MS Autosampler during the study (no shaking). A reference solution of each compound (final concentration: 10 μM at 1% DMSO) in pre-heated CH3CN (37° C.) was prepared from the stock solutions (10 mM in DMSO). The reference solutions were maintained at 37° C. in the UPLC/MS Autosampler during the study (no shaking). An internal standard (100 nM) was added to the sample and reference solutions. For each time point, the samples were analyzed directly by LC/MS without any further sample preparation. The samples were analyzed (triplicate injection) by monitoring the MS trace by Multiple Reaction Monitoring (MRM). The compound concentration (expressed as %) was calculated by dividing the peak area at each time point by the peak area at t=0 min. The reference solution was analyzed at the beginning (t=0 min.), and at the end of the study (t=24 h). The apparent half-lives (t1/2) of the disappearance of compound were calculated by a one-phase decay equation using a non-linear regression of compound concentration versus time.
The analyses were performed on a Waters ACQUITY UPLC/MS TQD system consisting of a TQD (Triple Quadropole Detector) Mass Spectrometer equipped with an Electrospray Ionization interface and a Photodiode Array Detector. The analyses were run on an ACQUITY UPLC BEH C18 1.7 μm 2.1×50 mm column with a VanGuard BEH C18 1.7 μm pre-column at 40° C. The mobile phase was 0.1% HCOOH in H2O (A) and 0.1% HCOOH in CH3CN (B) using a linear gradient: 0-0.2 min.: 5% B, 0.2-2.2 min.: 5-95% B, 2.2-2.3 min.: 95-5% B, 2.3-3 min.: 5% B with flow rate at 0.5 mL/min. […]

h-NAAA = h-NAAA (Homo sapiens (Human), UniProt Q02083); experiment: Fluorogenic h-NAAA assay; assay type: biochemical
Sequence of h-NAAA (Q02083 29-359): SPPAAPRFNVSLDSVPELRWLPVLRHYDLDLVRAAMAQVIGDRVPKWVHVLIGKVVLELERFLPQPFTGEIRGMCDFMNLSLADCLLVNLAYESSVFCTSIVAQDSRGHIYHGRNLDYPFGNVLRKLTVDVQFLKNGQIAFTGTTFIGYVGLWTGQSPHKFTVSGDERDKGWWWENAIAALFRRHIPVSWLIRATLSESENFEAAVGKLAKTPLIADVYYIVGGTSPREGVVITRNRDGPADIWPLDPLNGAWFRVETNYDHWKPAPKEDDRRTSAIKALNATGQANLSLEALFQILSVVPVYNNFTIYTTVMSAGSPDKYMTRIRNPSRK
Method: (§1) The assay was run in Optiplate 96-wells black plates, in a total reaction volume of 200 mL. NAAA protein preparations (4 ng) were pre-incubated for 10 minutes with various concentrations of test compounds or vehicle control (5% DMSO) in 100 mM citrate/phosphate buffer (pH 4.5) containing 3.0 mM DTT, 0.1% Triton X-100, 0.05% BSA, 150 mM NaCl. N-(4-methyl-2-oxo-chromen-7-yl)-hexadecanamide was used as a substrate (5.0 μM) and the reaction carried over for 30 minutes at 37° C. Fluorescence in the samples was quantified in a Perkin Elmer Envision plate reader using an excitation wavelength of 360 nm and emission 460 nm. IC50 values were calculated by non-linear regression analysis of log [concentration]/inhibition curves using GraphPad Prism 5 (GraphPad Software Inc., CA—USA) applying a standard slope curve fitting.
as §1, with “μL.” for “mL.”, “preparation (4.0 μg) was” for “preparations (4 ng) were”, “min” for “minutes”, “The” for “Fluorescence in the”, “were then read” for “was quantified”

Structure (SMILES): C[C@@H]1OC(=O)[C@@H]1NC(=O)OCCCCCc1ccccc1 [Example 6, 5-phenylpentyl-[(2S,3R)-2-methyl-4-oxooxetan-3-yl]-carbamate]
- half-life at 10 μM [1]: 1.7 h
- IC50 (h-NAAA): 14 nM
